# Results reported in patent publication US7982018B2, “Modified corticotropin releasing factor peptides and uses thereof” (Conjuchem, LLC, priority 2006, dated 2011).
# Where no end group is shown, it is not given here.
# Test system: Male C57BL/6 mice
# Assay: Food intake in mice after a single intravenous injection of urocortin derivatives
# Assay type: in vivo
# Description: The potency of several modified urocortin derivatives were determined by measuring food intake in mice. A study was performed with native human urocortin 1, 2 and 3 to select a dose and to determine whether the IV route was adequate for native peptides. Following the initial study, two additional studies were performed in which the effect of modified derivatives and native peptides were compared.
# Male C57BL/6 mice (22-26g) were housed 3 per cage and fed with standard chow. The night before dosing, mice were food restricted i.e., they were given only half of the amount of food ingested during the previous night. Dosing was performed between 9 and 10 a.m. Mice received a single intravenous injection (5 ml/kg via the tail vein) of saline or urocortin derivatives diluted in saline. Food intake was measured by placing preweighed pellets in the cage and weighing the uneaten pellets at 1, 2, 4, 6, 24 and 48 hours postdose.
# [1] = Study No. 2, FIG. 3, (Ucn II and III derivatives)
# [2] = Study No. 2, FIG. 3, 20 nmol/kg (Ucn I derivatives)
substance,measurement,setting,value
"FTLSL DVPTN IMNLL FNIAK(ε-AEEA-MPA) ARNLR AQAAA NAHLM AQI-NH2 (FTLSLDVPTNIMNLLFNIAKARNLRAQAAANAHLMAQI; Lys-AEEA-MPA, C-terminal amide) [SEQ ID No. 85, Modified peptide of human urocortin 3]",'rebound' of food intake as compared to the control,[1],increase of food intake as compared to the control
"DNPSLSIDLTFHLLRTLLELAK-(ε-AEEA-MPA)TQS QRERA EQNRI IFDSV-NH2 (DNPSLSIDLTFHLLRTLLELAKTQSQRERAEQNRIIFDSV; Lys-AEEA-MPA, C-terminal amide) [SEQ ID No. 80, Modified peptide of human urocortin 1]",'rebound' of food intake as compared to the control,[2],increase of food intake as compared to the control
IVLSLDVPIGLLQILLEQARARAAREQATTNARILARVGHC-NH2 (IVLSLDVPIGLLQILLEQARARAAREQATTNARILARVGHC-NH2; listed as Homo sapiens) [SEQ ID No. 92],food intake in the 1-2 h time period versus control,"Study No. 1, FIG. 1, 85 nmol/kg, 1-2 h postdose",back to the control
same,time over which food intake was reduced/inhibited postdose,"Study No. 1, FIG. 1, normal mice, 85 nmol/kg",up to 1 hour
same,cumulative food intake versus saline control,"Study No. 1, FIG. 2, 85 nmol/kg, at 6 hours postdose",still lower than the saline control
"IVLSLDVPIGLLQILLEQARAK-(ε-AEEA-MPA) AAR EQATT NARIL ARV-NH2 (IVLSLDVPIGLLQILLEQARAKAAREQATTNARILARV; Lys-AEEA-MPA, C-terminal amide) [SEQ ID No. 83, Modified peptide of human urocortin 2]",inhibition of food intake as compared to the control group,"Study No. 1, FIG. 1, 85 nmol/kg, 4-6 hour time interval",50%
same,duration of activity on food intake compared with the other tested compounds,[1],most prolonged activity
"DNPSLSIDLTFHLLRTLLELARTQSQRERAEQNRIIFDSV-NH2 (DNPSLSIDLTFHLLRTLLELARTQSQRERAEQNRIIFDSV-NH2; listed as Homo sapiens) [human urocortin 1, Human Urocortin 1 (40 Amino-acids), native peptide]",time up to which food intake was reduced,[2],up to 4 hours
"FTLSLDVPTNIMNLLFNIAKAKNLRAQAAANAHLMAQI-NH2 (FTLSLDVPTNIMNLLFNIAKAKNLRAQAAANAHLMAQI-NH2; listed as Homo sapiens) [Urocortin III, Human Urocortin 3 (38 Amino-acids), native peptide]",'rebound' of food intake as compared to the control,[1],increase of food intake as compared to the control
same,activity on food intake versus the free peptide,[1],much less active than the free peptide
same,period of decreased food intake,[1],decreased food intake during the first hour after injection only
